The values below are quoted from earlier work in US20230310317A1, “SOL-GEL COMPOSITION” (THE UNIVERSITY OF QUEENSLAND, priority 2020, published 2023).

Structures are written as SMILES.

For this series the following is noted: aqueous media e.g. gel-based systems.

`C[C@@H]1C[C@H]2[C@@H]3CCC4=CC(=O)C=C[C@]4(C)[C@@]3(Cl)[C@@H](O)C[C@]2(C)[C@@]1(OC(=O)c1ccco1)C(=O)CCl` [MF, mometasone furoate]: the “Solubility in aqueous media” value is recorded as “practically insoluble”.
